Tested on: strawberry (breed; Eminent garden series, Yokubari-ichigo kurenai (SUMIKA))
Experiment: Effect of oxidized glutathione on growth of strawberry (number of runners)
Format: in vivo
Details: 50 mL of 0.5 mM-GSSG two times a week; four months after the fertilization; Cont zone two or three runners

oxidized glutathione [GSSG] was tested, and the “number of runners per one stock” value was “several ten runners per one stock”.

From patent publication US9532519B2, “Plant growth regulator and use thereof” (Japan Science and Technology Agency, priority 2006, dated 2017)
